Reference: patent US10265345B2 (priority 2008, dated 2019)
Where two headings read alike, the source gives them in different places.

Assays:
[1] = test system: acute cerebral ischemia (MCAO) in rats; type: in vivo, Male Wistar rats; settings: 3 mg/kg, 5 doses from 2 h after surgery, 48 h
[2] = test system: acute cerebral ischemia (MCAO) in rats; design: species or system Male Wistar rats; settings: rat, in vivo, 3 mg/kg
[3] = test system: lactic acid in brain tissues; experiment: Level of lactic acid in brain tissues 48 hours after permanent MCAO; type: in vivo, Male Wistar rats; settings: rat brain tissues, 3 mg/kg
[4] = test system: superoxide dismutase (SOD); type: in vivo, Male Wistar rats; settings: rat brain tissues, 3 mg/kg, 48 hours after permanent MCAO

In the case of `CC1=NN(c2ccccc2)C(=O)C1` [Edaravone, edaravone], the “Scores of MCAO neurological symptoms” value ([1]; model group 5.3 ± 2.8) is reported as 4.3 ± 1.6, the “Scores of MCAO neurological symptoms” value ([1]; model group 5.3 ± 2.8, listed as edaravone) is reported as “no significant difference” and the “Volume (area) of cerebral infarction” value [2] is reported as “decreased significantly”. The “Level of Lactic acid” value ([3]; model 0.98 ± 0.09, sham 0.37 ± 0.01) was 0.64 ± 0.08 mmol/g protein, the “Level of Lactic acid” value ([3]; model 0.98 ± 0.09, sham 0.37 ± 0.01, listed as edaravone) was 0.64±0.08 mmol/g protein and the “SOD Activity” value [4] was 234.66 ± 15.85 U/mg pro. The “SOD Activity” value ([4]; listed as edaravone) was “significantly increased”.
